Results published in patent publication US9844521B2, “Pharmaceutical composition comprising ginger extract or shogaol” (UNIVERSITY-INDUSTRY COOPERATION GROUP OF KYUNG HEE …, priority 2008, dated 2017).

What was measured:
C6 cells = assay: Nerve growth factor secretion induction in C6 cells (NGF measurement kit); type: cell-based, mouse; conditions: conditioned media of C6 cells, mean±standard deviation
Method: This test was performed using a glioma C6 cell line of […] which is known as a cell line that secretes a nerve growth factor (NGF), and a pheochromocytoma PC12 cell line of […] which is known as a cell line that grows neurite with respect to an NGF in a similar way as a neuron. C6 cells and PC12 cells were obtained from Korean Cell Line Bank (KCLB Nos. 10107 and 21721, respectively). C6 cells were cultured using DMEM media (Gibco BRL, USA) supplemented with 3.4 g/L of sodium bicarbonate (NaHCO3), 10% fetal bovine serum, and 1% penicillin-streptomycin antibiotics (10000 U/ml), and PC12 cells were cultured using RPMI1640 medium (Gibco BRL, USA) supplemented with 2.0 g/L of sodium bicarbonate, 10% horse serum, 5% fetal bovine serum, and 1% penicillin-streptomycin antibiotics (10000 U/ml). The fetal bovine serum and the horse serum were inactivated at a temperature of 55[…] for 30 minutes before use, and all of the cells were cultured in a cell culture vessel with a humidity of 70% at a temperature of 37[…] to which 5% carbon dioxide was supplied. Regarding the PC12 cells, the cells were cultured in a culture vessel that was surface-coated with poly-D-lysine (Sigma) diluted with 50 μg/ml of a PBS buffer solution (pH 7.2) for 1 hour and then washed three times with a PBS buffer solution. Shogaol used was obtained from WAKO Company (Japan).
C6 cells attached to a 100 mm culture vessel were separated from the culture vessel by using 0.25% Trypsin-EDTA (Gibco BRL, USA), and then 10 ml of fresh medium was added to the cells to prepare a cell suspension. Then, the number of viable cells was counted and calculated by using a cell number counter. The cells were divided based on the counted cell number such that 2×10^6 cells were contained in a 100 mm culture dish. After 24 hours of cultivation, the used media was removed and replaced with 10 ml of a DMEM medium containing 2% fetal bovine serum, to which 100 ug/ml of each of the ethanol extract, the n-hexane fraction, the ethyl acetate fraction, the n-butanol fraction, and the water fraction prepared according to Example 1 was added. After 24 hours of cultivation, the respective media were obtained. The obtained media were centrifuged at a rate of 1500 rpm for 10 minutes and then a supernatant was collected, and these media (conditioned media) were used to treat PC12 cells.
The C6 cells were divided and treated with 0.1, 1, 5, 10, and 20 μM of shogaol in the same manner as in Experimental Example 1-1 to prepare conditioned media.
A nerve growth factor secreted from C6 cells by shogaol was quantified by treating a nerve growth factor measurement kit (DY556, R&D system, USA) with the conditioned media. In order to identify an effect of shogaol on nerve growth factor secretion induction, a nerve growth factor in the conditioned media prepared by culturing C6 cells after the cells were treated with shogaol was quantified and the results are shown in FIG. 2.

[1] = tested on: 2-vessel occlusion cerebral ischemia model; assay: 2-vessel occlusion cerebral ischemia model, neurons in CA1 of hippocampus; type: in vivo, mouse; conditions: 10 mg/kg in 10% tween 80, immediately after 2VO then once per day for 3 days
Method: 7-week old C57BL/6 based male mice (19-22 g) were obtained and nurtured in an animal laboratory at Kyunghee University Graduate School of East-West Medicine Science for one week or more for adaptation. Water and feed were freely supplied, and the temperature (22±2[…]), humidity (53±3%), and a cycle of brightness and darkness (12 hours) were automatically controlled.
Mice were divided into three groups, each of which consisted of 10 mice. Anesthesia was induced in an anesthetic gas (O2: 30%, N2O: 70%, and isoflurane: 2.0%) chamber, and mice of the respective groups were located on an operating table with their backs on the operating table. The skin of each mouse was cut upward by about 1.5 cm from a point where the upper limbs and an intermediate line meet, and then, facing common carotid arteries were exposed without damage of tissues. Tissues and nerves attached to the carotid arteries were dissociated and occlusion was performed thereon by using an aneurism clip for 25 minutes. In this regard, the temperature of the mice was measured by using a rectal thermometer and maintained at 37±0.5 □.
A sham control refers to a group obtained as described above except for the occlusion of the common carotid arteries. Medicine administration was performed immediately after a 2VO step, and thereafter, performed once per day for 3 days. […]

E. coli WP2 uvrA = assay: Back mutation test (genotoxicity in bacteria), E. coli strain; conditions: compared with negative control
Method: In order to evaluate genotoxicity in bacteria, a back mutation test was performed using histidine-requiring salmonella typhimurium strains (TA 100, TA 1535, TA 98, and TA 1537) and an E. coli strain (E. coli WP2 uvrA). As a result, a positive control has a substantially greater colony number than a negative control. […] Accordingly, it was confirmed that the ginger extract and shogaol all had stability in the genotoxicity test.

SD rats = assay: Acute toxicity test; conditions: 0.1 mg/10 ml/kg to 5000 mg/10 ml/kg, 2 weeks

CCCCC/C=C/C(=O)CCc1ccc(O)c(OC)c1 [shogaol, (E)-1-(4-hydroxy-3-methoxyphenyl)dec-4-en-3-one]
secretion amount of a nerve growth factor (C6 cells; 0.1 μM): 105.46±7.27 % of a control
secretion amount of a nerve growth factor (C6 cells; 1 μM): 112.72±3.67 % of a control
secretion amount of a nerve growth factor (C6 cells; 5 μM): 112.97±4.97 % of a control
secretion amount of a nerve growth factor (C6 cells; 10 μM): 119.44±5.18 % of a control
secretion amount of a nerve growth factor (C6 cells; 20 μM): 124.81±5.61 % of a control
neuron apoptosis suppression efficacy in CA1 [1]: 29.5±15.4 % of the 2VO step group
colony number (back mutation) (E. coli WP2 uvrA): the colony number was not increased
body weight (SD rats): weight change with respect to a test material did not occur
general symptom (SD rats): abnormal symptoms with respect to a test material were not found
